# Assay results published in article PMC5393604, “The fungal natural product azaphilone-9 binds to HuR and inhibits HuR-RNA interaction in vitro” (PLoS ONE, 2017).
# Where “and” joins values, the source holds several entries; their conditions need not be identical. Equal entries are not always repeated.
# B1: AREc-fos (fluorescein) (ssRNA)
# RNA: AUUUUUAUUUU
# B2: AREMsi1 (fluorescein) (ssRNA)
# RNA: GCUUUUAUUUAUUUUG
# Columns and labels:
# [1] = molecular target: T1, HuR-ARE^Msi1 interaction (full length HuR) (Homo sapiens, UniProt Q15717); assay: FP competition assay, HuR-ARE^Msi1 binding; type: biochemical; conditions: 10 nM HuR, 2 nM fluorescein-labeled ARE^Msi1; n = 3; read-out: IC50, inhibition of HuR-ARE^Msi1 interaction
# T1 construct: full length HuR (326 residues); made in house; host or cells: E. coli BL21 (DE3)
# Protocol: Synthetic RNA oligos were from Dharmacon. For FP assay, fluorescein-tagged ARE^Msi1 oligo derived from the 3’-UTR of Musashi RNA-binding protein 1 (Msi1) with the sequence 5’-GCUUUUAUUUAUUUUG-3’ and 11-mer ARE^c-fos RNA oligo (5’-AUUUUUAUUUU-3’) identical to the c-fos RNA sequence used in the crystal structure of HuR-RNA complex were used. For NMR studies, unmodified 11-mer ARE^c-fos RNA oligo [8] was used. Prior to the addition of RNA to the protein, the RNA was heated at 95°C for 5 min followed by immediate cooling on ice for 5 min. […]
# (§1) FP competition assay for screening and hit validation were carried out as reported previously. […] Measurements were taken using a BioTek Synergy H4 hybrid plate reader (Biotek, Winooski, VT) after incubating for 2 hours at room temperature. […] Percent inhibition was calculated by comparing to the DMSO (0% inhibition) and labeled free RNA only (100% inhibition) controls.
# A FP-based high throughput screen on HuR and a 16-mer ARE^Msi1 RNA oligomer from the 3’-UTR of Musashi1 (Msi1) mRNA previously identified novel small molecule inhibitors of HuR-ARE interaction. […] Multi-dose effect was determined to verify the inhibition of HuR-ARE interaction. […]
# [2] = molecular target: T2, HuR-ARE^c-fos interaction (full length HuR) (Homo sapiens, UniProt Q15717); assay: FP competition assay, HuR-ARE^c-fos binding; type: biochemical; conditions: 10 nM full length HuR, 2 nM fluorescein-labeled ARE^c-fos; n = 3; read-out: IC50, disruption of HuR-ARE^c-fos binding
# T2 construct: full length HuR (326 residues); made in house; host or cells: E. coli BL21 (DE3)
# Protocol: (§2) Synthetic RNA oligos were from Dharmacon. For FP assay, fluorescein-tagged ARE^Msi1 oligo derived from the 3’-UTR of Musashi RNA-binding protein 1 (Msi1) with the sequence 5’-GCUUUUAUUUAUUUUG-3’ and 11-mer ARE^c-fos RNA oligo (5’-AUUUUUAUUUU-3’) identical to the c-fos RNA sequence used in the crystal structure of HuR-RNA complex were used. For NMR studies, unmodified 11-mer ARE^c-fos RNA oligo [8] was used. Prior to the addition of RNA to the protein, the RNA was heated at 95°C for 5 min followed by immediate cooling on ice for 5 min. The azaphilone derivatives used herein were obtained by semisynthetic diversification of asperbenzaldehyde, which was purified from a strain of Aspergillus nidulans that was engineered to overproduce this compound as described elsewhere. Compounds were dissolved in dimethyl sulfoxide (DMSO) to form 10 mM stock solutions; for NMR studies, deuterated dimethyl sulfoxide (d6-DMSO) was used.
# as §1, with “controls. […]” for “controls.”
# [3] = molecular target: T3, HuR RRM1/2-ARE^c-fos interaction (Homo sapiens, UniProt Q15717); assay: FP competition assay, HuR RRM1/2-ARE^c-fos binding; type: biochemical; conditions: 50 nM HuR RRM1/2, 2 nM fluorescein-labeled ARE^c-fos; n = 3; read-out: IC50, disruption of HuR RRM1/2-ARE^c-fos binding
# T3 construct: HuR RRM1/2 (residues 18–186); made in house; host or cells: E. coli BL21 (DE3)
# Protocol: as §2
# as §1, with “controls. […]” for “controls.”
# HuR = molecular target: T4, HuR (Homo sapiens, UniProt Q15717); assay: Surface plasmon resonance, direct binding to immobilized HuR; conditions: injected at 0–125 μM, 20°C; n = 2
# T4 construct: made in house; host or cells: E. coli BL21 (DE3)
# Protocol: Surface plasmon resonance (SPR) datasets were acquired using a BIACORE 3000 (GE Healthcare) at 20°C as described. Briefly, HuR was immobilized into a CM5 chip by amine-coupling chemistry and AZA-9 dissolved in buffer (20 mM HEPES pH 7.4, 150 mM NaCl, 3 mM EDTA, 0.05% p20 (v/v), 5% DMSO (v/v)) was injected into the flow cell at a flow rate of 60 μL/min. The mixtures complexes were allowed to associate for 400 sec and dissociate for 160 sec. SPR sensorgrams were generated using Scrubber2 (BioLogic Software, Australia).
# Fig 1 AZA-9 inhibits HuR-ARE RNA interaction and binds directly to HuR. Titration of 2 nM ARE^c-fos and control RNA (a 16-nt fluorescein-labeled RNA oligo with random sequence) with (A) HuR and (B) HuR RRM1/2 (n = 3). (C) Dose-response curve of AZA-9 disrupting HuR-ARE^c-fos binding in FP assay using 10 nM HuR and 2 nM fluorescein-labeled ARE^c-fos (n = 3). (D) Dose-response curve of AZA-9 disrupting HuR RRM1/2-ARE^c-fos binding in FP assay using 50 nM HuR RRM1/2 and 2 nM fluorescein-labeled ARE^c-fos (n = 3). (E) SPR sensorgrams of AZA-9 injected at increasing concentrations of 0–125 μM into a flow cell containing immobilized HuR (n = 2). Structure of AZA-9 is shown on the right. The following were the negative controls used–random RNA in (A) and (B); and AZA-15 in (C) and (D). […]
# HuR RRM1/2 [4] = molecular target: T5, HuR RRM1/2 (Homo sapiens, UniProt Q15717); assay: NMR titration of 15N/ILV-labeled HuR RRM1/2; type: binding; conditions: equimolar concentration (1:1), 50 μM 15N HuR RRM1/2
# T5 construct: HuR RRM1/2 (residues 18–186); made in house; host or cells: E. coli BL21 (DE3)
# Protocol: Proteins for NMR were dissolved in NMR buffer (100 mM NaCl, 10 mM NaPO4 pH 6.8, 10% D2O). ^15N NMR data were acquired using Bruker Avance 800 MHz spectrometer with a TCI cryoprobe. ILV ^13C NMR data were acquired using on a Bruker Avance III 600 MHz spectrometer. NMR data were acquired at 25°C, processed using NMRPipe and analyzed using NMRView. For ^15N and ILV chemical shift mapping, 80 μM ^15N/ILV-labeled HuR RRM1/2 was titrated with unlabeled ARE^c-fos RNA at increasing molar ratios of 1:0, 1:0.5, 1:1, and 1:1.7. AZA-9 was titrated at 1:1 and 1:2 molar ratios into 50 μM ^15N/ ILV-labeled HuR RRM1/2 in NMR buffer with 10% d6-DMSO. […] The ^15N titrations were monitored by acquiring 2D ^1H-^15N TROSY spectra, and the ILV titrations were monitored by acquiring 2D ^1H-^13C HSQC spectra. The published backbone amide assignments of HuR RRM1/2 (BMRB entry 26628) and the ILV assignments made herein were used in the NMR analysis.
# The interaction of AZA-9 with HuR RRM1/2 was characterized by NMR methods. […] Specifically, residue R97 in the inter-domain linker region (whose intensity reduced by ~50% at equimolar concentration of AZA-9, Fig 4C) has been previously reported as important for RNA binding, RNA recognition and high affinity HuR-RNA complex formation. […]
# Musashi-1 (Msi1) = Musashi-1 (Msi1) (Homo sapiens, UniProt O43347); assay: Binding to Musashi-1 (unpublished data); conditions: authors' unpublished data
# HuR full length [5] = molecular target: T6, HuR full length (UniProt Q15717 1-326); assay: fluorescence polarization; 2 nM RNA; FP: room temperature, 2 h incubation in the competition assay, buffer not given (as in cited ref 22); NMR: 100 mM NaCl, 10 mM sodium phosphate pH 6.8, 10% D2O; conditions: protein: recombinant; single strand
# HuR RRM1/2 [6] = molecular target: HuR RRM1/2 (UniProt Q15717 18-186); assay: as above; conditions: protein: recombinant; tags: N-terminal His6 (retained); single strand
# HuR full length [7] = molecular target: T6, HuR full length; assay: fluorescence polarization; 10 nM HuR, 2 nM RNA; complex disrupted by AZA-9 (compound IC50 1.1 uM); FP: room temperature, 2 h incubation in the competition assay, buffer not given (as in cited ref 22); NMR: 100 mM NaCl, 10 mM sodium phosphate pH 6.8, 10% D2O; conditions: protein: recombinant; single strand
# T6 sequence (Q15717 whole entry): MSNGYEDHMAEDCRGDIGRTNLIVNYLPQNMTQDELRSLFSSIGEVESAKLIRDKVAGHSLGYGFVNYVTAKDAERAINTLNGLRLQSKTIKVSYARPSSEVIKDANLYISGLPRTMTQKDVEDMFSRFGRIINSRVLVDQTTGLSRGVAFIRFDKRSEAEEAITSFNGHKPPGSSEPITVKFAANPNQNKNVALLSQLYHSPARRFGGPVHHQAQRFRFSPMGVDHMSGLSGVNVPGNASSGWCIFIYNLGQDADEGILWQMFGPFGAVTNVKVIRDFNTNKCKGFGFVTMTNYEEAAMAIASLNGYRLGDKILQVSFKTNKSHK
# T2 sequence (Q15717 whole entry): as above
# Chain of Musashi-1 (Msi1) (O43347 whole entry, species assumed): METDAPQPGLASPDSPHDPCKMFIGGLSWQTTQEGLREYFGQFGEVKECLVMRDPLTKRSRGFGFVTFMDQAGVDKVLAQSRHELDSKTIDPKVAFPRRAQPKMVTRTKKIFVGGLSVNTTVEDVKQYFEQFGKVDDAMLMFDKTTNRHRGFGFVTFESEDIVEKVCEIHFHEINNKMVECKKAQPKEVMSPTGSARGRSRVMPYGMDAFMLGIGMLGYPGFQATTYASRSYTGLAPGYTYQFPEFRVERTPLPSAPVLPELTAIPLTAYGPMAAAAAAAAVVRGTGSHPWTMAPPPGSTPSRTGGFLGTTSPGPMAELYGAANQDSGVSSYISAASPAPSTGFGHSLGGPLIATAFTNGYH
# T5 sequence (Q15717 18-186): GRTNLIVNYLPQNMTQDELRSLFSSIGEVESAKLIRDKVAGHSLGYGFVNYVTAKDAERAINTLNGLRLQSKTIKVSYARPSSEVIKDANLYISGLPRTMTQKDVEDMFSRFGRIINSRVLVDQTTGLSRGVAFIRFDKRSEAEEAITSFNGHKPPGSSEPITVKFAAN
# T3 sequence (Q15717 18-186): as above
# Chain of HuR RRM1/2 (UniProt Q15717 18-186) (Q15717 18-186): as above
# T1 sequence (Q15717 whole entry): as the sequence (Q15717 whole entry) above
# T4 sequence (Q15717 whole entry): as above
molecule,measurement,setting,value
"CC[C@H](C)/C=C(C)/C=C/C1=CC2=C(Br)C(=O)C(C)(OC(C)=O)C(=O)C2=CO1 (stereo partly drawn) [AZA-9, azaphilone-9]",IC50,[1],1.1 µM
same,IC50,[2],~1.2 µM and 1.2 µM
same,IC50,[3],7.4 µM
same,SPR optical response on immobilized HuR (in words),HuR,increased optical response in a dose-dependent manner
same,reduction of NMR peak intensity of residue R97,HuR RRM1/2 [4],~ 50%
same,binding to Musashi-1 (in words),Musashi-1 (Msi1),also binds
B1,Kd,HuR full length [5],0.0033 µM
same,Kd,HuR RRM1/2 [6],0.0222 µM
B2,binding result,HuR full length [7],binds
